Biological target: T1, human aquaporin 9 (Homo sapiens, UniProt O43315)
T1 construct: expressed in transfected cells; host or cells: Human AQP9 cell line with tetracycline added to the medium
T1 sequence (O43315 1-295): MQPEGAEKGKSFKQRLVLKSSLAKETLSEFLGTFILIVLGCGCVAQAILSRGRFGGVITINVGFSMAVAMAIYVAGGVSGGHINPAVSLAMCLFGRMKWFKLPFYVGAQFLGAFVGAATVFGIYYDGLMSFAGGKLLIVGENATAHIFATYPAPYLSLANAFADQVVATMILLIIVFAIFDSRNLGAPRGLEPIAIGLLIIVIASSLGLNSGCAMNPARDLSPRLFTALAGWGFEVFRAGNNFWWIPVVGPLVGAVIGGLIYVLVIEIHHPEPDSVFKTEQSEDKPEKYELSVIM
Assay: Calcein quenching fluostar assay
Format: cell-based
Details: inhibition of human aquaporin 9; Human AQP9 cell line, tetracyclin-induced; 25° C.
Experimental: Calcein Quenching Fluostar Assay
A calcein quenching fluostar assay was performed in order to investigate the biological activity of the newly synthesized examples 1 to 57. This type of assay is disclosed in J. Biol. Chem., 2011, 286, 44319-44325 and Am. J. Physiol. Renal Physiol. (2010), 298, F224-230.
1) Two days prior to commencement of the assay, seed 10,000 cells/well of 96 well black clear bottom plate (Greiner Poly-lysin plate). A 1:1 mix of Dulbecco's Modified Eagle's Medium:Nutrient Mixture F-12 (DMEM: F12) was obtained from Gibco. Tetracycline stock of 5 mg/ml in 96% ethanol is used. Medium:DMEM/F12/10% Donor Bovine Serum, Human AQP9 cell line+1:270,000 tetracyclin, mouse AQP9 cell line+1:2,700,000 tetracycline.
2) Day of assay: Flick/slam off the medium and add 50 μl/well of loading solution: 5 ml DMEM/F12/10% Donor Bovine Serum, 25 μl Calcein AM—from freshly dissolved aliquot in 50 μl DMSO (VWR #734-1434), and 100 μl Probenecid.
3) Incubate the well for 90 minutes at 37° C.
4) Perform one wash with 75 μl wash buffer.
5) Add 75 μl of an example compound prepared in wash buffer per well.
Example compounds are prepared in 500 μl U bottom PP plates (NUNC). […] Substance in DMSO are added to row A; 180 μl of wash buffer+1% DMSO are added to rows B-H. 90 μl from row A are transferred and mixed with all other wells (up to row G) to make a 3-fold dilution series.
6) Assay in FLUOstar Optima at 25° C. Settings buffer addition at 135 μl seconds, add 75 μl/well, record time course for 30 seconds, add sucrose buffer 3.6 seconds into recording.
7) Normalization to initial in Excel.
8) Fit to “exponential decay” function in GraphPad Prism 5.0, then arrange half live shrinking values according to wells and fit dose-response curves.

Structure (SMILES): COc1ccc(-c2nnc(NC(=O)CSc3nnc(-c4ccc(F)cc4)n3C3CC3)s2)cc1 [Example 33, 2-{[4-Cyclopropyl-5-(4-fluorophenyl)-4H-1,2,4-triazol-3-yl]sulfanyl}-N-[5-(4-methoxyphenyl)-1,3,4-thiadiazol-2-yl]acetamide]
- IC50: 978 nM

Structure (SMILES): CCn1c(SCC(=O)Nc2nnc(-c3ccc(F)cc3)s2)nnc1-c1cccc(C)c1 [Example 23]
- IC50: 372 nM

Structure (SMILES): CCn1c(SCC(=O)Nc2nnc(-c3ccc(S(C)(=O)=O)cc3)s2)nnc1-c1ccncc1 [Example 56, 2-{[4-ethyl-5-(pyridin-4-yl)-4H-1,2,4-triazol-3-yl]sulfanyl}-N-[5-(4-methanesulfonylphenyl)-1,3,4-thiadiazol-2-yl]acetamid]
- IC50: 151 nM

Structure (SMILES): CCn1c(SCC(=O)Nc2nnc(-c3ccc(F)cc3)s2)nnc1-c1ccncc1 [Example 31, 2-{[4-Ethyl-5-(pyridin-4-yl)-4H-1,2,4-triazol-3-yl]sulfanyl}-N-[5-(4-fluorophenyl)-1,3,4-thiadiazol-2-yl]acetamide]
- IC50: 99 nM

Structure (SMILES): CCn1c(SCC(=O)Nc2nnc(-c3ccc(F)cc3)s2)nnc1-c1ccc(C)cc1 [Example 24, 2-{[4-Ethyl-5-(4-methylphenyl)-4H-1,2,4-triazol-3-yl]sulfanyl}-N-[5-(4-fluorophenyl)-1,3,4-thiadiazol-2-yl]acetamide]
- IC50: 427 nM

Structure (SMILES): CCn1c(SCC(=O)Nc2nnc(-c3ccc(OC)cc3)s2)nnc1-c1cccc(Cl)c1 [Example 39, 2-{[5-(3-chlorophenyl)-4-ethyl-4H-1,2,4-triazol-3-yl]sulfanyl}-N-[5-(4-methoxyphenyl)-1,3,4-thiadiazol-2-yl]acetamide]
- IC50: 113 nM

Structure (SMILES): Cn1c(SCC(=O)Nc2nnc(-c3ccccc3F)s2)nnc1-c1ccc(F)cc1 [Example 8, 2-{[5-(4-Fluorophenyl)-4-methyl-4H-1,2,4-triazole-3-yl]sulfanyl}-N-[5-(2-fluorophenyl)-1,3,4-thiadizole-2-yl]-acetamide]
- IC50: 157 nM

Structure (SMILES): CCn1c(SCC(=O)Nc2nnc(-c3ccc(F)c(F)c3)s2)nnc1-c1ccc(F)cc1 [Example 46, N-[5-(3,4-difluorophenyl)-1,3,4-thiadiazol-2-yl]-2-{[4-ethyl-5-(4-fluorophenyl)-4H-1,2,4-triazol-3-yl]sulfanyl}acetamide]
- IC50: 385 nM

Structure (SMILES): CCn1c(SCC(=O)Nc2nnc(-c3ccc(OC)cc3)s2)nnc1-c1ccc(Cl)cc1 [Example 40, 2-{[5-(4-chlorophenyl)-4-ethyl-4H-1,2,4-triazol-3-yl]sulfanyl}-N-[5-(4-methoxyphenyl)-1,3,4-thiadiazol-2-yl]acetamide]
- IC50: 810 nM

Structure (SMILES): CCn1c(SCC(=O)Nc2nnc(-c3ccc(F)cc3)s2)nnc1-c1ccc(Cl)cc1 [Example 43, 2-{[5-(4-chlorophenyl)-4-ethyl-4H-1,2,4-triazol-3-yl]sulfanyl}-N-[5-(4-fluorophenyl)-1,3,4-thiadiazol-2-yl]acetamide]
- IC50: 92 nM

Structure (SMILES): CCn1c(SCC(=O)Nc2nnc(-c3ccc(OC)cc3)s2)nnc1-c1cccnc1 [Example 20, 2-{[4-Ethyl-5-(pyridin-3-yl)-4H-1,2,4-triazol-3-yl]sulfanyl}-N-[5-(4-methoxyphenyl)-1,3,4-thiadiazol-2-yl]acetamide]
- IC50: 56 nM

Structure (SMILES): CCn1c(SCC(=O)Nc2nnc(-c3ccc(OC)cc3)s2)nnc1-c1ccccc1Cl [Example 19, 2-{[5-(2-Chlorophenyl)-4-ethyl-4H-1,2,4-triazol-3-yl]sulfanyl}-N-[5-(4-methoxyphenyl)-1,3,4-thiadiazol-2-yl]acetamide]
- IC50: 233 nM

Structure (SMILES): CCn1c(SCC(=O)Nc2nnc(-c3ccc(CS(C)(=O)=O)cc3)s2)nnc1-c1ccc(F)cc1 [Example 54, 2-{[4-ethyl-5-(4-fluorophenyl)-4H-1,2,4-triazol-3-yl]sulfanyl}-N-{5-[4-(methanesulfonylmethyl)phenyl]-1,3,4-thiadiazol-2-yl}acetamide]
- IC50: 901 nM

Structure (SMILES): Cn1c(SCC(=O)Nc2nnc(-c3ccccc3F)s2)nnc1-c1ccc(Cl)cc1 [Example 7, 2-{[5-(4-Chlorophenyl)-4-methyl-4H-1,2,4-triazole-3-yl]sulfanyl}-N-[5-(2-fluorophenyl)-1,3,4-thiadizole-2-yl]-acetamide]
- IC50: 260 nM

Structure (SMILES): CCn1c(SCC(=O)Nc2nnc(-c3ccc(OC)cc3)s2)nnc1-c1ccncc1 [Example 21, 2-{[4-Ethyl-5-(pyridin-4-yl)-4H-1,2,4-triazol-3-yl]sulfanyl}-N-[5-(4-methoxyphenyl)-1,3,4-thiadiazol-2-yl]acetamide]
- IC50: 68 nM

Structure (SMILES): CCn1c(SCC(=O)Nc2nnc(-c3ccc(F)cc3)s2)nnc1-c1ccc(F)cc1 [Example 12, 2-{[4-Ethyl-5-(4-fluorophenyl)-4H-1,2,4-triazol-3-yl]sulfanyl}-N-[5-(4-fluorophenyl)-1,3,4-thiadiazol-2-yl]acetamide]
- IC50: 56 nM

Structure (SMILES): CCn1c(SC(C)C(=O)Nc2nnc(-c3ccc(OC)cc3)s2)nnc1-c1ccc(F)cc1 (stereo not shown) [Example 35, 2-{[4-Ethyl-5-(4-fluorophenyl)-4H-1,2,4-triazol-3-yl]sulfanyl}-N-[5(4-methoxyphenyl)-1,3,4-thiadiazol-2-yl]propanamide]
- IC50: 301 nM

Structure (SMILES): COc1ccc(-c2nnc(NC(=O)CSc3nnc(-c4ccccc4)n3CCO)s2)cc1 [Example 52, 2-{[4-(3-hydroxyethyl)-5-phenyl-4H-1,2,4-triazol-3-yl]sulfanyl}-N-[5-(4-methoxyphenyl)-1,3,4-thiadiazol-2-yl]acetamide]
- IC50: 59 nM

Structure (SMILES): CCn1c(SCC(=O)Nc2nnc(-c3ccc(OC)cc3)s2)nnc1-c1cccc(F)c1 [Example 18, 2-{[4-Ethyl-5-(3-fluorophenyl)-1,2,4-triazol-3-yl]sulfanyl}-N-[5-(4-methoxyphenyl)-1,3,4-thiadiazol-2-yl]acetamide]
- IC50: 135 nM

Structure (SMILES): CCn1c(SCC(=O)Nc2nnc(-c3ccc(OC)cc3)s2)nnc1-c1cccc(C)c1 [Example 14, 2-{[4-Ethyl-5-(3-methylphenyl)-4H-1,2,4-triazol-3-yl]sulfanyl}-N-[5-(4-methoxyphenyl)-1,3,4-thiadiazol-2-yl]acetamide]
- IC50: 172 nM

Structure (SMILES): CCn1c(SCC(=O)Nc2nnc(-c3ccc(OC)cc3)s2)nnc1-c1ccccn1 [Example 41, 2-{[4-ethyl-5-(pyridin-2-yl)-4H-1,2,4-triazol-3-yl]sulfanyl}-N-[5-(4-methoxyphenyl)-1,3,4-thiadiazol-2-yl]acetamide]
- IC50: 260 nM

Structure (SMILES): CCCn1c(SCC(=O)Nc2nnc(-c3ccc(OC)cc3)s2)nnc1-c1ccc(F)cc1 [Example 32, 2-{[5-(4-Fluorophenyl)-4-propyl-4H-1,2,4-triazol-3-yl]sulfanyl}-N-[5-(4-methoxyphenyl)-1,3,4-thiadiazol-2-yl]acetamide]
- IC50: 416 nM

Structure (SMILES): CCn1c(SCC(=O)Nc2nnc(-c3ccc(OC)c(F)c3)s2)nnc1-c1ccc(F)cc1 [Example 45, 2-{[4-ethyl-5-(4-fluorophenyl)-4H-1,2,4-triazol-3-yl]sulfanyl}-N-[5-(3-fluoro-4-methoxyphenyl)-1,3,4-thiadiazol-2-yl]acetamide]
- IC50: 182 nM

Structure (SMILES): CCn1c(SCC(=O)Nc2nnc(-c3ccc(O)cc3)s2)nnc1-c1ccc(F)cc1 [Example 34, 2-{[4-Ethyl-5-(4-fluorophenyl)-4H-1,2,4-triazol-3-yl]sulfanyl}-N-[5(4-hydroxyphenyl)-1,3,4-thiadiazol-2-yl]acetamide]
- IC50: 61 nM

Structure (SMILES): CCn1c(SCC(=O)Nc2nnc(-c3ccc(F)cc3)s2)nnc1-c1ccccc1F [Example 27, 2-{[4-Ethyl-5-(2-fluorophenyl)-4H-1,2,4-triazol-3-yl]sulfanyl}-N-[5-(4-fluorophenyl)-1,3,4-thiadiazol-2-yl]acetamide]
- IC50: 366 nM

Structure (SMILES): COc1ccc(-c2nnc(NC(=O)CSc3nnc(-c4ccncc4)n3C)s2)cc1 [Example 10, N-[5-(4-methoxyphenyl)-1,3,4-thiadiazol-2-yl]-2-{[4-methyl-5-(pyridin-4-yl)-4H-1,2,4-triazol-3-yl]sulfanyl}acetamide]
- IC50: 37 nM

Structure (SMILES): CCn1c(SCC(=O)Nc2nnc(-c3ccc(S(C)(=O)=O)cc3)s2)nnc1-c1cccnc1 [Example 57, 2-{[4-ethyl-5-(pyridin-3-yl)-4H-1,2,4-triazol-3-yl]sulfanyl}-N-[5-(4-methanesulfonylphenyl)-1,3,4-thiadiazol-2-yl]acetamide]
- IC50: 133 nM

Structure (SMILES): CCn1c(SCC(=O)Nc2nnc(-c3ccc(OC)cc3)s2)nnc1-c1ccc(OC)cc1 [Example 16, 2-{[4-Ethyl-5-(4-methoxyphenyl)-4H-1,2,4-triazol-3-yl]sulfanyl}-N-[5-(4-methoxyphenyl)-1,3,4-thiadiazol-2-yl]acetamide]
- IC50: 269 nM

From patent US10011597B2 (APOGLYX AB, priority 2014, dated 2018)
